As usually defined, the EC50 is the concentration that produces a half-maximal response. As a reminder, the IC50 is the point on the concentration scale where inhibition reaches its midpoint.

Assay [1] has as its system Jurkat NFκB-luciferase cells. Briefly: Jurkat NFκB-Luciferase Assay.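 Note: bioluminescence read-out normalized to DMSO basal activation and to maximum enhancement at 1 µM compound, rising signal indicating stronger T-cell activation through DGKα inhibition.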 In kind it is cell-based. The settings on record: Homo sapiens; Jurkat NFκB-luciferase cells activated with anti-CD3 antibody (OKT3), 2.5 hrs at 37° C., One-Glo Ex; geometric mean; read-out: DGK NFKb Luciferase EC50.
Procedure: The activity of compounds was tested in a cell based NFκB reporter assay. Jurkat cells that are stably expressing a luciferase reporter construct under the transcriptional control of a NFκB reporter element were activated with an anti-CD3 antibody and luciferase levels were measured with a bioluminescence readout.
The day after, the excess antibody was washed out five times with 100 ul/well of assay medium (RPMI supplemented with 10% fetal bovine serum) using a Biotek EL406 instrument and leaving 20 µl of residual volume in each well. Jurkat NFκB-luciferase cells (Promega #) were harvested and diluted to 1 million cells/ml in assay medium. Sixty nanoliters of test compound dissolved in DMSO at various concentrations were dispensed into 384-well v-bottom polypropylene plates (Greiner) using a Labcyte Echo instrument. Thirty microliters of medium containing the Jurkat NFκB-luciferase cells were then dispensed using a Biotek MicroFlo instrument in each well of the compound-containing plate. The medium/cell/compound mixture was mixed with a Bravo instrument and 20 ul/well of the mixture was transferred to the anti-CD3-coated plate. The assay mixture was then incubated for 2.5 hrs at 37° C. followed by equilibration at 25° C. for 30 min. Forty microliters of One-Glo Ex (Promega) was then added to the assay mixture and luciferase activity was read on a Envision plate reader 7 minutes later.
Bioluminescence data were normalized based on maximum enhancement (1 micromolar of compound) and on basal activation (DMSO) controls. Least squares curve fittings were performed using a four-parameter variable slope nonlinear regression model. […] EC50 values from multiple experiments were averaged by geometric mean and the standard deviation was calculated.
A further assay deals with T1, human DGKα (Homo sapiens, UniProt P23743).
T1 construct: purchased Carna Biosciences'; inferred from the same paragraph's 'obtained from Carna Biosciences')
T1 sequence (P23743 whole entry): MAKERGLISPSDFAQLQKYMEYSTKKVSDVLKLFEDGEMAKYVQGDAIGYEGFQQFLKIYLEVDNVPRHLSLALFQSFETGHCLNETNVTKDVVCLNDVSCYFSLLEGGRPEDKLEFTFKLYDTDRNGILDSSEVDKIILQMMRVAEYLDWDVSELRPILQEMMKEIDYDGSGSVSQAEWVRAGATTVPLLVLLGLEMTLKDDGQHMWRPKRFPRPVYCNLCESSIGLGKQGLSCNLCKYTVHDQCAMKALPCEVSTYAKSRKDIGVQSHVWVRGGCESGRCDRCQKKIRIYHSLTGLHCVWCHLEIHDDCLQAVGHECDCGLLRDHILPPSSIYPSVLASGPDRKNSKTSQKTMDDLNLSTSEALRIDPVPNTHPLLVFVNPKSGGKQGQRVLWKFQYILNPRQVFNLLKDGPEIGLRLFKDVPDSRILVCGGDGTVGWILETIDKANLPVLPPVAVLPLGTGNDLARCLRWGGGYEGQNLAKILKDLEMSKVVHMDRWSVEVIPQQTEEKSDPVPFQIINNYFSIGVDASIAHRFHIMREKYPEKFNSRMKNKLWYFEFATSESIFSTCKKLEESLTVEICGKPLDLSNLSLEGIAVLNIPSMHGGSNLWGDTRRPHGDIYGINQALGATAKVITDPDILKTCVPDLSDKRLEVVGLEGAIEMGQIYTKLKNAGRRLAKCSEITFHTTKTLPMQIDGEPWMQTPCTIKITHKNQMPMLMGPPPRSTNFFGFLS
Briefly: DGKα Biochemical Activity Assay (ADP-Glo).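 Note: recombinant enzyme converting diacylglycerol in lipid micelles with ATP, ADP formed detected by luminescence, IC50 from a four-parameter nonlinear fit, geometric mean across experiments.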

Source text for human DGKα: Alternatively, the enzymatic activity of human DGKα was monitored in a biochemical assay in the presence or absence of compounds and using micelles containing 18:1 Diacylglycerol (DAG), 16:0-18:1 PS (POPS) and Octylglucoside as substrate. DGKα activity led to conversion of DAG and ATP to Phosphatidic Acid (PA) and ADP. Levels of ADP were monitored by bioluminescence using the ADP-Glo Kinase Assay (Promega) and were indicative of DGKα activity.
Ten nanoliters of test compound dissolved in DMSO at various concentrations were dispensed into a 384-well low volume nonbinding service white plates (Corning #3824) using a Labcyte Echo instrument. Recombinant DGKα Biosciences) in assay buffer (5 μL in 50 mM MOPS [3-(N-morpholino) propanesulfonic acid], pH 7.2; 0.0025% Triton X-100; 1 mM dithiothreitol; 5 mM MgCl2, 200 μM ATP) was added to the compound-containing plate and was incubated for 15 minutes at 25° C. A substrate solution (5 μL in 1.7 mM 1,2-dioleoyl-sn-glycerol [18:1 DAG], 13.5 mM 1-palmitoyl-2-oleoyl-sn-glycero-3-phospho-L-serine [16:0-18:1 PS](POPS), 2 μM CaCl2), 100 mM Octylglucoside (OG), 1 mM DTT) (obtained from Carna Biosciences) diluted in DGK ALPHA assay buffer was then added to start the reaction. Final concentrations were 1 nM DGKα, 100 μM ATP, 1 μM calcium chloride, 0.85 mM 1,2-dioleoyl-sn-glycerol (18:1 DAG), 6.75 mM 1-palmitoyl-2-oleoyl-sn-glycero-3-phospho-L-serine (16:0-18:1 PS) (POPS), 1 μM CaCl2), 50 mM Octylglucoside (OG) and 5 mM MgCl2. The reaction mixture was incubated at 25° C. for 1 hour. ADP-Glo Reagent (10 μL, 10 mM Mg added) provided by the kit was added to each well and incubated at 25° C. for 40 minutes. Then, 20 μL of Kinase Detection Reagent was added and incubated at 25° C. for 40 minutes. Luciferase activity of each well was measured via luminescence on an Envision plate reader (PerkinElmer).
Least squares curve fittings were performed using a four-parameter variable slope nonlinear regression model. […] IC50 values from multiple experiments were averaged by geometric mean and the standard deviation was calculated.

Turning to `[2H]C([2H])([2H])n1c(=O)nc(N2CCCc3c(C#CC4CCCN4C)cccc32)c2c(F)cccc21` (stereo not drawn) [Example 161, 5-fluoro-4-[5-[2-(1-methylpyrrolidin-2-yl)ethynyl]-3,4-dihydro-2H-quinolin-1-yl]-1-(trideuteriomethyl)quinazolin-2-one], the EC50 in assay [1] came out at 2.8 nM. Besides, on human DGKα, the IC50 was determined as 16.7 nM.

`CC1(C#Cc2nccc(N(CC(F)F)c3nc(=O)[nH]c4cccc(F)c34)c2F)CC1` [Example 115, 4-[2,2-difluoroethyl-[3-fluoro-2-[2-(1-methylcyclopropyl)ethynyl]-4-pyridyl]amino]-5-fluoro-1H-quinazolin-2-one]: the half-maximal effective concentration (EC50) in assay [1] was determined as 1.21 nM. The IC50 at human DGKα came to 6.05 nM.

For `O=c1nc(N(CC(F)(F)F)c2cc(F)cc(C#CC3(C(F)(F)F)CC3)c2)c2cc(F)ccc2[nH]1` [Example 27, 6-fluoro-4-[3-fluoro-N-(2,2,2-trifluoroethyl)-5-[2-[1-(trifluoromethyl)cyclopropyl]ethynyl]anilino]-1H-quinazolin-2-one], the EC50 in assay [1] was determined as 3.27 nM. On human DGKα, this compound gave an IC50 of 97.3 nM.

On to `[2H]C([2H])([2H])n1c(=O)nc(N2CCOCc3c(C#CC(C)(C)NC(=O)C4(C(C)(F)F)CC4)cccc32)c2c(F)cccc21` [Example 180, 1-(1,1-difluoroethyl)-N-(4-(1-(5-fluoro-1-(methyl-d3)-2-oxo-1,2-dihydroquinazolin-4-yl)-1,2,3,5-tetrahydrobenzo[e][1,4]oxazepin-6-yl)-2-methylbut-3-yn-2-yl)cyclopropane-1-carboxamide], for which the EC50 in assay [1] worked out at 7.56 nM. This compound also returned an IC50 against human DGKα of 4.63 nM.

Regarding `CC(C)(C#N)C#Cc1cccc2c1COCCN2c1nc(=O)[nH]c2ccc(F)c(F)c12` [Example 91, 4-[1-(5,6-difluoro-2-oxo-1H-quinazolin-4-yl)-3,5-dihydro-2H-4,1-benzoxazepin-6-yl]-2,2-dimethyl-but-3-ynenitrile], in assay [1], the EC50 was determined as 2.67 nM. The IC50 at human DGKα was determined as 5.24 nM.

With `O=c1nc(N(CC(F)F)c2cncc(C#CC3(C(F)(F)F)CC3)c2)c2cc(F)ccc2[nH]1` [Example 45, 4-((2,2-difluoroethyl)(5-((1-(trifluoromethyl)cyclopropyl)ethynyl)pyridin-3-yl)amino)-6-fluoroquinazolin-2(1H)-one], in assay [1], the EC50 was determined as 6.18 nM. For the same compound, the 50% inhibitory concentration (IC50) on human DGKα stood at 67.4 nM.

Turning to `CC(C)(C#N)C#Cc1cccc2c1COCCN2c1nc(=O)[nH]c2c(F)cc(F)cc12` [Example 104], the EC50 in assay [1] was determined as 5.21 nM. Further, the 50% inhibitory concentration (IC50) on human DGKα is 4.88 nM.

As for `[2H]C([2H])([2H])n1c(=O)nc(N2CCOCc3c(C#CC(C)(C)C#N)cccc32)c2c(F)cccc21` [Example 95, 4-[1-[5-fluoro-2-oxo-1-(trideuteriomethyl)quinazolin-4-yl]-3,5-dihydro-2H-4,1-benzoxazepin-6-yl]-2,2-dimethyl-but-3-ynenitrile], the EC50 in assay [1] came out at 2.29 nM. This compound also displayed an IC50 against human DGKα of 2.1 nM.

Consider `CC1(C#Cc2cccc3c2COCCN3c2nc(=O)[nH]c3c(F)cc(F)cc23)CC1` [Example 105], for which the EC50 in assay [1] was 0.85 nM. Further, the half-maximal inhibitory concentration (IC50) on human DGKα stood at 6.96 nM.

As to `[2H]C([2H])([2H])n1c(=O)nc(N2CCCc3c(C#CC4(C(F)(F)F)CC4)cncc32)c2c(F)c(F)ccc21` [Example 160, 5,6-difluoro-1-(methyl-d3)-4-(5-((1-(trifluoromethyl)cyclopropyl)ethynyl)-3,4-dihydro-1,7-naphthyridin-1(2H)-yl)quinazolin-2(1H)-one], the EC50 in assay [1] was determined as 0.936 nM. At human DGKα, this compound showed a half-maximal inhibitory concentration (IC50) of 5.36 nM.

Take `O=c1nc(N2CCCc3c2ccnc3C#CC2(C(F)(F)F)CC2)c2c(F)c(F)ccc2[nH]1` [Example 116, 5,6-difluoro-4-[5-[2-[1-(trifluoromethyl)cyclopropyl]ethynyl]-3,4-dihydro-2H-1,6-naphthyridin-1-yl]-1H-quinazolin-2-one]: in assay [1], the EC50 turned out to be 0.945 nM. The compound also returned an IC50 against human DGKα of 4.07 nM.

As to `[2H]C([2H])([2H])n1c(=O)nc(N(CC(F)F)c2ccnc(C#CC3(C(F)(F)F)CC3)c2)c2c(F)cccc21` [Example 135, 4-[2,2-difluoroethyl-[2-[2-[1-(trifluoromethyl)cyclopropyl]ethynyl]-4-pyridyl]amino]-5-fluoro-1-(trideuteriomethyl)quinazolin-2-one], the EC50 in assay [1] worked out at 2.23 nM. Further, the IC50 on human DGKα was 10.6 nM.

Take `[2H]C([2H])([2H])n1c(=O)nc(N2CCOCc3c(C#CC4CCCN4CC(F)F)cccc32)c2c(F)cccc21` (stereo not drawn) [Example 168, 4-[6-[2-[1-(2,2-difluoroethyl)pyrrolidin-2-yl]ethynyl]-3,5-dihydro-2H-4,1-benzoxazepin-1-yl]-5-fluoro-1-(trideuteriomethyl)quinazolin-2-one]: the 50% effective concentration (EC50) in assay [1] turned out to be 1.55 nM. On human DGKα, this compound had a half-maximal inhibitory concentration (IC50) of 5.33 nM.

As for `CC(C)(O)C#Cc1cc(F)cc(N(CC(F)F)c2nc(=O)[nH]c3c(Cl)cc(F)cc23)c1` [Example 114, 8-chloro-4-[N-(2,2-difluoroethyl)-3-fluoro-5-(3-hydroxy-3-methyl-but-1-ynyl)anilino]-6-fluoro-1H-quinazolin-2-one], in assay [1], the EC50 amounted to 112 nM. Further, at human DGKα, half-maximal inhibition (IC50) was put at 445 nM.

Take `[2H]C([2H])([2H])n1c(=O)nc(N2CCCc3c2ccnc3C#CC2(C(F)(F)F)CC2)c2c(F)cccc21` [Example 142, 5-fluoro-1-(trideuteriomethyl)-4-[5-[2-[1-(trifluoromethyl)cyclopropyl]ethynyl]-3,4-dihydro-2H-1,6-naphthyridin-1-yl]quinazolin-2-one]: the EC50 in assay [1] was 8.25 nM. Also, the IC50 at human DGKα was 8.91 nM.

On to `O=c1nc(N(CC(F)F)c2cc(F)cc(C#CC3(C(F)(F)F)CC3)c2)c2ccc(Cl)cc2n1CCO` [Example 33, 7-chloro-4-[N-(2,2-difluoroethyl)-3-fluoro-5-[2-[1-(trifluoromethyl)cyclopropyl]ethynyl]anilino]-1-(2-hydroxyethyl)quinazolin-2-one], for which the concentration for a half-maximal effect (EC50) in assay [1] amounted to 3.65 nM. Inhibition against human DGKα was half-maximal at 284 nM (IC50).

As for `[2H]C([2H])([2H])n1c(=O)nc(N2CCCc3c(C#CC4(C)CC4)cncc32)c2c(F)c(F)ccc21` [Example 159, 5,6-difluoro-1-(methyl-d3)-4-(5-((1-methylcyclopropyl)ethynyl)-3,4-dihydro-1,7-naphthyridin-1(2H)-yl)quinazolin-2(1H)-one], in assay [1], the EC50 amounted to 0.685 nM. At human DGKα, this compound registered a 50% inhibitory concentration (IC50) of 2.03 nM.

For the compound `[2H]C([2H])([2H])n1c(=O)nc(N2CCOCc3c(C#CC(C)(C)NC(=O)C4(C(F)F)CC4)cccc32)c2c(F)cccc21` [Example 178, 1-(difluoromethyl)-N-(4-(1-(5-fluoro-1-(methyl-d3)-2-oxo-1,2-dihydroquinazolin-4-yl)-1,2,3,5-tetrahydrobenzo[e][1,4]oxazepin-6-yl)-2-methylbut-3-yn-2-yl)cyclopropane-1-carboxamide], the EC50 in assay [1] was found to be 9.33 nM. The same compound had a half-inhibitory concentration (IC50) against human DGKα of 6.36 nM.

These data come from patent US11932634B2 (Gilead Sciences, Inc., priority 2021, dated 2024).
